Here are results for one compound from patent US11590197B2, “Agents targeting inhibitor of apoptosis proteins” (The Regents of the University of California, priority 2017, dated 2023).

Common to all, as to assay type: cell-based, human
One assay deals with H929 and L363 cells. Nature of the assay: MTS assay, LCL161-sensitive multiple myeloma cell lines. The settings on record: H929 and L363, 48 hr, 20 μM; result in words. The method, then:
(§1) Cell lines and antibodies. […] (ATCC® TIB-196™), NCI-H929 [H929]
MTS assay. MM.1S, U266, L363, H929, LP1, RPMI cells were seeded on 96-well plates in three replicates at 100 μL/well (2.5×10^5cells/ml) in growing medium and exposed to 20 μM) of different chemical compounds.
Background: Tetrazolium assays rely on reduction of a dye to a coloured formazan, in cell work by metabolically active cells.

The next assay has as its system MIA PaCa-2 cells. Kind of assay: Co-treatment with gemcitabine (GEM) and IAP inhibitors, MIA PaCa-2. The settings on record: GEM 24 h, then GEM + 15 μM IAP inhibitor 24 h; result in words. The method, then: as §1
(§2) Pancreatic cancer cells co-treatment with gemcitabine (GEM) and IAP inhibitors. Pancreatic cancer cells were plated at 30×10^3 cells per well in 96-well plates. The next day, cells were treated with different concentrations of GEM. After 24-h incubation, media was removed and replenished with the same GEM concentration alone or with 15 μM of IAP inhibitors in serum-free media and cells were further incubated for 24 h.
(§3) Cell proliferation assay was determined using ATPlite 1Step Luminescence Assay System (PerkinElmer) according to the manufacturer's instructions, and luminescence was measured by VICTOR X5 microplate reader (PerkinElmer). Finally, data was plotted, and IC50 values were calculated using Prism GraphPad version 7. […] This experiment was repeated three times, and each concentration was tested in triplicate.

A further assay concerns BxPC3 and PANC-1 cells. Kind of assay: Co-treatment with gemcitabine (GEM) and IAP inhibitors, BxPC3 and PANC-1. The settings on record: GEM 24 h, then GEM + 15 μM IAP inhibitor 24 h; result in words. The method, then:
as §1, §2, §3

“Also recorded” adds a separate entry of the source.

Turning to `CN[C@@H](C)C(=O)N[C@@H](Cc1cc(C)c(C(F)(F)F)cc1F)C(=O)N1CCC[C@H]1C(=O)NC1CCc2c(F)cccc21` (stereo partly drawn) [Compound 31], the “activity in LCL161-sensitive MM cell lines” value in the assay with H929 and L363 cells is “approximately equipotent”. The “effect in combination with gemcitabine, MIA PaCa-2” value with MIA PaCa-2 cells is “modest significant additive effect”. In the assay with BxPC3 and PANC-1 cells, the “effect in combination with gemcitabine, BxPC3 and PANC-1 (pancreatic cancer cell lines, FIG. 10E)” value was “significantly sensitize; also recorded: able to significantly restore growth inhibition by gemcitabine; also recorded: significant synergism”.
